This passage reports viability and Activity results from ChEMBL document CHEMBL3044770, “Studies on toxicity of antitubercular drugs namely isoniazid, rifampicin, and pyrazinamide in an in vitro model of HepG2 cell line” (Med Chem Res, 2011).

Common to all, as to assay type: cell-based
Data set [1] is described as follows: Toxicity in Homo sapiens (human) HepG2 cells assessed as cell viability at 5 mM after 24 hr by MTT assay. The following applies: read-out: Activity. Background: Formazan colour is commonly taken as a measure of viable cells.
Data set [2] can be described thus: Toxicity in pyrazinamide pretreated Homo sapiens (human) HepG2 cells assessed as cell viability at 200 mM after 24 hr by MTT assay. Conditions: HepG2 cells pretreated with pyrazinamide, read-out: Activity.
The next data set deals with HepG2. Put plainly: Toxicity in Homo sapiens (human) HepG2 cells assessed as change in cell morphology at 1 mM after 24 hr by phase contrast microscopic analysis. Conditions: hepg2, 24 h, 1000 µM.
Data set [3] is described as follows: Toxicity in Homo sapiens (human) HepG2 cells assessed as cell viability at 50 mM after 24 hr by MTT assay. The following applies: read-out: Activity.
Data set [4] is described as follows: Toxicity in Homo sapiens (human) HepG2 cells assessed as cell viability at 10 mM after 24 hr by MTT assay. The following applies: read-out: Activity.
Data set [5] is described as follows: Toxicity in Homo sapiens (human) HepG2 cells assessed as cell viability at 1 mM after 24 hr by MTT assay. Conditions: read-out: Activity.
Data set [6] in a line: Toxicity in isoniazid pretreated Homo sapiens (human) HepG2 cells assessed as cell viability at 200 mM after 24 hr by MTT assay. The following applies: HepG2 cells pretreated with isoniazid, read-out: Activity.
Data set [7] in a line: Toxicity in Homo sapiens (human) HepG2 cells assessed as cell viability at 25 uM after 24 hr by MTT assay. The following applies: read-out: Activity.
Data set [8] in a line: Toxicity in Homo sapiens (human) HepG2 cells assessed as cell viability at 100 uM after 24 hr by MTT assay. The following applies: read-out: Activity.
Data set [9] is described as follows: Toxicity in Homo sapiens (human) HepG2 cells assessed as cell viability at 50 uM after 24 hr by MTT assay. The following applies: read-out: Activity.

SMILES strings stand for the structures.

`NNC(=O)c1ccncc1` [ISONIAZID]: in data set [1], the viability at 24 h, 5000 µM turned out to be 99.7%. The viability at 24 h, 200000 µM in data set [2] was determined as 56.1%. In addition, the Activity result in the data set with HepG2 is recorded as “Non-toxic”. For the same compound, in [3], the viability at 24 h, 50000 µM was determined as 91.3%. For the same compound, the viability at 24 h, 10000 µM in data set [4] was 129%. In addition, the viability at 24 h, 1000 µM in data set [5] was found to be 125%.

Regarding `NC(=O)c1cnccn1` [PYRAZINAMIDE], the viability at 24 h, 5000 µM in data set [1] came out at 102%. Besides, the viability at 24 h, 200000 µM in [6] worked out at 60.1%. Moreover, the Activity entry in the data set with HepG2 is on record as “Non-toxic”. In data set [3], the viability at 24 h, 50000 µM turned out to be 102%. Besides, the viability at 24 h, 10000 µM in data set [4] came to 104%. Further, the viability at 24 h, 1000 µM in data set [5] was 87.7%.

Consider `CO[C@H]1/C=C/O[C@@]2(C)Oc3c(C)c(O)c4c(O)c(c(/C=N/N5CCN(C)CC5)c(O)c4c3C2=O)NC(=O)/C(C)=C\C=C\[C@H](C)[C@H](O)[C@@H](C)[C@@H](O)[C@@H](C)[C@H](OC(C)=O)[C@@H]1C` [RIFAMPIN], for which the viability at 24 h, 25 µM in data set [7] worked out at 115%. In addition, the viability at 24 h, 100 µM in data set [8] is 192%. For the same compound, the viability at 24 h, 50 µM in [9] was found to be 116%.
